Assay results: patent US4268665A, “Derivatives of antibiotic tylosin” (Toyo Jozo Kabushiki Kaisha, priority 1978, dated 1981)
In brackets after ≈: the same amount, converted by molar mass. Read-outs that look alike come from different tables or passages of the source.

Legend:
Type in all cases: cell-based
[1] = system: Staph.aureus ATCC6538P; experiment: MIC on Staph.aureus ATCC6538P; conditions: Staphylococcus aureus
From the text: (§1) In Table I hereinafter is shown the minimum inhibitory concentrations (MIC) on microorganisms of the products of the present invention. As a result, the compound [1] is seen to be effective against macrolide-resistant A group microorganisms.

[2] = system: Staph.aureus MS353; experiment: MIC on Staph.aureus MS353; conditions: Staphylococcus aureus
From the text: as §1

[3] = system: Staph.aureus MS353A0; experiment: MIC on Staph.aureus MS353A0 (macrolide-resistant A group); conditions: Staphylococcus aureus; Staph.aureus MS353A0, erythromycin, oleandomycin, 16-membered macrolide resistant clinical isolate
From the text: as §1
(§2) *Erythromycin, oleandomycin, 16membered macrolide resistant strains of
(§3) clinical isolates (macrolideresistant Agroup strains)

[4] = system: Staph.aureus 0116; experiment: MIC on Staph.aureus 0116 (macrolide-resistant A group); conditions: Staphylococcus aureus
From the text: as §1, §2, §3

[5] = system: Staph.aureus 0119; experiment: MIC on Staph.aureus 0119 (macrolide-resistant A group); conditions: Staphylococcus aureus
From the text: as §1, §2, §3

[6] = system: Staph.aureus 0127; experiment: MIC on Staph.aureus 0127 (macrolide-resistant A group); conditions: Staphylococcus aureus; Staph.aureus 0127, erythromycin, oleandomycin, 16-membered macrolide resistant clinical isolate
From the text: as §1, §2, §3

[7] = system: Strept.pyogenes N.Y.5; experiment: MIC on Strept.pyogenes N.Y.5; conditions: Streptococcus pyogenes
From the text: as §1

[8] = system: Strept.pyogenes 1022; experiment: MIC on Strept.pyogenes 1022 (macrolide-resistant A group); conditions: Streptococcus pyogenes; Strept.pyogenes 1022, erythromycin, oleandomycin, 16-membered macrolide resistant clinical isolate
From the text: as §1, §2, §3

[9] = Staph.aureus 0119, erythromycin, oleandomycin, 16-membered macrolide resistant clinical isolate, read-out: MIC
[10] = Staph.aureus 0116, erythromycin, oleandomycin, 16-membered macrolide resistant clinical isolate, read-out: MIC

SMILES | MIC [1] [µg/mL] | MIC [2] [µg/mL] | MIC [3] [µg/mL] | MIC [4]; 0116 [µg/mL] | MIC [5, 9] [µg/mL] | MIC [6] [µg/mL] | MIC [7] [µg/mL] | MIC [8] [µg/mL] | MIC [4, 10] [µg/mL] | MIC [5]; 0119 [µg/mL]
CCC1OC(=O)CC(O)C(C)C(OC2OC(C)C(OC3CC(C)(OC(C)=O)C(OC(C)=O)C(C)O3)C(N(C)C)C2O)C(CC=O)CC(C)C(=O)C=CC(C)=CC1COC1OC(C)C(O)C(OC)C1OC (stereo not drawn) [3"-Ac, 4"-Ac, 3", 4"-diacetyltylosin] | 0.8 (≈ 0.8 µM) | 1.6 (≈ 1.6 µM) | 12.5 (≈ 12.5 µM) | 12.5 (≈ 12.5 µM) | 50 (≈ 50 µM) | 100 (≈ 100 µM) | 0.2 (≈ 0.2 µM) | 6.3 (≈ 6.3 µM) | – | –
CCC1OC(=O)CC(O)C(C)C(OC2OC(C)C(OC3CC(C)(OC(C)=O)C(OC(=O)CC(C)C)C(C)O3)C(N(C)C)C2O)C(CC=O)CC(C)C(=O)C=CC(C)=CC1COC1OC(C)C(O)C(OC)C1OC (stereo not drawn) [3"-Ac, 4"-Iva, 3"-acetyl-4"-isovaleryltylosin] | 1.6 (≈ 1.54 µM) | 3.1 (≈ 2.97 µM) | 6.3 (≈ 6.04 µM) | – | 6.3 (≈ 6.04 µM) | 12.5 (≈ 12 µM) | 0.2 (≈ 0.192 µM) | 1.6 (≈ 1.54 µM) | 6.3 (≈ 6.04 µM) | –
CCCCCC(=O)OC1C(C)OC(OC2C(C)OC(OC3C(CC=O)CC(C)C(=O)C=CC(C)=CC(COC4OC(C)C(O)C(OC)C4OC)C(CC)OC(=O)CC(O)C3C)C(O)C2N(C)C)CC1(C)OC(C)=O (stereo not drawn) [3"-Ac, 4"-Hex, 3"-acetyl-4"-hexanoyltylosin] | 1.6 (≈ 1.51 µM) | 3.1 (≈ 2.93 µM) | 12.5 (≈ 11.8 µM) | – | – | 25 (≈ 23.7 µM) | 0.4 (≈ 0.379 µM) | 1.6 (≈ 1.51 µM) | 6.3 (≈ 5.96 µM) | 12.5 (≈ 11.8 µM)
CCC(=O)OC1C(C)OC(OC2C(C)OC(OC3C(CC=O)CC(C)C(=O)C=CC(C)=CC(COC4OC(C)C(O)C(OC)C4OC)C(CC)OC(=O)CC(O)C3C)C(O)C2N(C)C)CC1(C)OC(C)=O (stereo not drawn) [3"-Ac, 4"-Pro, 3"-acetyl-4"-propionyltylosin] | 1.6 (≈ 1.58 µM) | 3.1 (≈ 3.06 µM) | 25 (≈ 24.6 µM) | – | 12.5 (≈ 12.3 µM) | 25 (≈ 24.6 µM) | 0.2 (≈ 0.197 µM) | 1.6 (≈ 1.58 µM) | 6.3 (≈ 6.21 µM) | –
CCCC(=O)OC1C(C)OC(OC2C(C)OC(OC3C(CC=O)CC(C)C(=O)C=CC(C)=CC(COC4OC(C)C(O)C(OC)C4OC)C(CC)OC(=O)CC(O)C3C)C(O)C2N(C)C)CC1(C)OC(=O)CCC (stereo not drawn) [3"-Bu, 4"-Bu, 3", 4"-dibutyryltylosin] | 1.6 (≈ 1.51 µM) | 6.1 (≈ 5.77 µM) | 12.5 (≈ 11.8 µM) | – | – | 25 (≈ 23.7 µM) | 0.2 (≈ 0.189 µM) | 1.6 (≈ 1.51 µM) | 6.3 (≈ 5.96 µM) | 12.5 (≈ 11.8 µM)
CCC1OC(=O)CC(O)C(C)C(OC2OC(C)C(OC3CC(C)(OC(=O)CC(C)C)C(OC(C)=O)C(C)O3)C(N(C)C)C2O)C(CC=O)CC(C)C(=O)C=CC(C)=CC1COC1OC(C)C(O)C(OC)C1OC (stereo not drawn) [3"-Iva, 4"-Ac, 4"-acetyl-3"-isovaleryltylosin] | 0.8 (≈ 0.768 µM) | 1.6 (≈ 1.54 µM) | 6.3 (≈ 6.04 µM) | – | 25 (≈ 24 µM) | > 100 | 0.2 (≈ 0.192 µM) | 6.3 (≈ 6.04 µM) | 6.3 (≈ 6.04 µM) | –
CC[C@H]1OC(=O)C[C@@H](O)[C@H](C)[C@@H](O[C@@H]2O[C@H](C)[C@@H](O[C@H]3C[C@@](C)(O)[C@@H](O)[C@H](C)O3)[C@H](N(C)C)[C@H]2O)[C@@H](CC=O)C[C@@H](C)C(=O)/C=C/C(C)=C/[C@@H]1CO[C@@H]1O[C@H](C)[C@@H](O)[C@@H](OC)[C@H]1OC [3"-H, 4"-H, tylosin] | 0.8 (≈ 0.873 µM) | 1.6 (≈ 1.75 µM) | > 100 | – | > 100 | > 100 | 0.2 (≈ 0.218 µM) | > 100 | > 100 | –
CCCC(=O)OC1C(C)OC(OC2C(C)OC(OC3C(CC=O)CC(C)C(=O)C=CC(C)=CC(COC4OC(C)C(O)C(OC)C4OC)C(CC)OC(=O)CC(O)C3C)C(O)C2N(C)C)CC1(C)OC(C)=O (stereo not drawn) [3"-Ac, 4"-Bu, 3"-acetyl-4"-butyryltylosin] | 1.6 (≈ 1.56 µM) | 3.1 (≈ 3.01 µM) | 12.5 (≈ 12.2 µM) | – | – | 25 (≈ 24.3 µM) | 0.2 (≈ 0.195 µM) | 1.6 (≈ 1.56 µM) | 6.3 (≈ 6.13 µM) | 12.5 (≈ 12.2 µM)
CCC(=O)OC1(C)CC(OC2C(C)OC(OC3C(CC=O)CC(C)C(=O)C=CC(C)=CC(COC4OC(C)C(O)C(OC)C4OC)C(CC)OC(=O)CC(O)C3C)C(O)C2N(C)C)OC(C)C1OC(=O)CC(C)C (stereo not drawn) [3"-Pro, 4"-Iva, 4"-isovaleryl-3"-propionyltylosin] | 1.6 (≈ 1.51 µM) | 3.1 (≈ 2.93 µM) | 6.3 (≈ 5.96 µM) | – | 6.3 (≈ 5.96 µM) | 12.5 (≈ 11.8 µM) | 0.4 (≈ 0.379 µM) | 0.8 (≈ 0.757 µM) | 6.3 (≈ 5.96 µM) | –
CCC(=O)OC1C(C)OC(OC2C(C)OC(OC3C(CC=O)CC(C)C(=O)C=CC(C)=CC(COC4OC(C)C(O)C(OC)C4OC)C(CC)OC(=O)CC(O)C3C)C(O)C2N(C)C)CC1(C)OC(=O)CC (stereo not drawn) [3"-Pro, 4"-Pro, 3", 4"-dipropionyltylosin] | 1.6 (≈ 1.56 µM) | 3.1 (≈ 3.01 µM) | 25 (≈ 24.3 µM) | – | 12.5 (≈ 12.2 µM) | 25 (≈ 24.3 µM) | 0.2 (≈ 0.195 µM) | 1.6 (≈ 1.56 µM) | 6.3 (≈ 6.13 µM) | –
CCCC(=O)OC1C(C)OC(OC2C(C)OC(OC3C(CC=O)CC(C)C(=O)C=CC(C)=CC(COC4OC(C)C(O)C(OC)C4OC)C(CC)OC(=O)CC(O)C3C)C(O)C2N(C)C)CC1(C)O (stereo not drawn) [3"-H, 4"-Bu, reference compound] | 0.8 (≈ 0.811 µM) | 3.1 (≈ 3.14 µM) | 50 (≈ 50.7 µM) | – | 50 (≈ 50.7 µM) | 100 (≈ 101 µM) | 0.2 (≈ 0.203 µM) | 12.5 (≈ 12.7 µM) | 25 (≈ 25.3 µM) | –
CCCC(=O)OC1C(C)OC(OC2C(C)OC(OC3C(CC=O)CC(C)C(=O)C=CC(C)=CC(COC4OC(C)C(O)C(OC)C4OC)C(CC)OC(=O)CC(O)C3C)C(O)C2N(C)C)CC1(C)OC(=O)CC (stereo not drawn) [3"-Pro, 4"-Bu, 4"-butyryl-3"-propionyltylosin] | 1.6 (≈ 1.54 µM) | 3.1 (≈ 2.97 µM) | 12.5 (≈ 12 µM) | – | – | 25 (≈ 24 µM) | 0.2 (≈ 0.192 µM) | 1.6 (≈ 1.54 µM) | 6.3 (≈ 6.04 µM) | 12.5 (≈ 12 µM)
